Results as given in US11952388B2, “Crystal form of tri-cycle compound and application thereof” (FUJIAN AKEYLINK BIOTECHNOLOGY CO., LTD., priority 2018, dated 2024).
pIC50: −log10 of the molar value.

Columns and labels:
CYP1A2 = target: T1, CYP1A2 (Homo sapiens, UniProt P05177); assay: Inhibition of human liver microsomal cytochrome P450 isoenzymes; assay type: in vitro ADME; details: human liver microsomes
T1 construct: from tissue; host or cells: human liver microsomes
T1 sequence (P05177 1-516): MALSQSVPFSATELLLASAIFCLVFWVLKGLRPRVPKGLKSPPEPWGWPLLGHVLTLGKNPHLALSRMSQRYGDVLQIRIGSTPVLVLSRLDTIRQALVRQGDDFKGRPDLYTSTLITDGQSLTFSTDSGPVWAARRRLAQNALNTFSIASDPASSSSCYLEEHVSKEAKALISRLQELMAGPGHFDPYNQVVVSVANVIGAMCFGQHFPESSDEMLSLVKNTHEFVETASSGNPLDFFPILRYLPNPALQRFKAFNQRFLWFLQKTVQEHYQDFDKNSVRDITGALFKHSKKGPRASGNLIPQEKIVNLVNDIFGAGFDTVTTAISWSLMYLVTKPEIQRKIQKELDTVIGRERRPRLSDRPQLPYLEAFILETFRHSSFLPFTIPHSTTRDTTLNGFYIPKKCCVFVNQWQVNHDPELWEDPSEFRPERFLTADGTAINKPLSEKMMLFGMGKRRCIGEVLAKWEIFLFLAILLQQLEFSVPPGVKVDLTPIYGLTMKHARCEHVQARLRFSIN
Method: Objectives of experiment: To determine the inhibitory effect of the test compound on the activity of human liver microsomal cytochrome P450 isoenzymes (CYP1A2, CYP2C9, CYP2C19, CYP2D6 and CYP3A4). Experimental operation: First, the test compound (10 mM) was diluted in a gradient to prepare the working solutions (100× final concentration). The concentrations of the working solutions were 5, 1.5, 0.5, 0.15, 0.05, 0.015 and 0.005 mM. Meanwhile, the working solutions of mixture (5 in 1) of positive inhibitors of each P450 isoenzyme (CYP1A2, CYP2C9, CYP2C19, CYP2D6 and CYP3A4) and the specific substrate of the isoenzymes were also prepared; the human liver microsomes frozen in the refrigerator at −80° C. were unfrozen on ice. After the human liver microsomes were completely dissolved, they were diluted with PB to prepare a certain concentration (0.253 mg/mL) of working solution; 20 uL of the substrate mixture was added into the reaction plate (20 μl PB was added into the Blank well) as well as 158 μL of human liver microsome working solution, then the reaction plate was placed on ice and set aside; at this time, 2 μL of each concentration of test compound (N=1) and specific inhibitor (N=2) were added to the corresponding well, the group without inhibitor (test compound or positive inhibitor) was added with the corresponding organic solvent as a control sample (the test compound control sample was 1:1 DMSO:MeOH, and the positive control sample was 1:9 DMSO:MeOH); after pre-incubating in a 37° C. water bath for 10 min, the reaction plate was added with 20 μL of coenzyme factor (NADPH) solution and water bathed at 37° C. for 10 min; 400 μL of cold acetonitrile solution (internal standard was 200 ng/mL Tolbutamide and Labetalol) was added to terminate the reaction; the reaction plate was then placed on a shaker and shaken for 10 min, followed by centrifuging at 4,000 rpm for 20 min; 200 μL of supernatant was added to 100 μL of water for sample dilution; finally, the plate was sealed, shaken well, and subjected to LC/MS/MS detection.

hepatitis B virus = assay: In vivo drug efficacy, AAV/HBV mouse model; details: AAV/HBV mouse model, 15, 50, 150 mg/kg BID PO, 28 days
Method: FIG. 7: The level of Hepatitis B virus DNA in plasma; broken line 1 means blank control, 10% solutol aqueous solution was administered quaque die (QD), per os (PO); broken line 2 means that WX-325 was administrated at a dose of 15 mg/kg bis in die (BID) at an interval of 8 hours, per os (PO); the broken line 3 means that WX-325 was administrated at a dose of 50 mg/kg bis in die (BID) at an interval of 8 hours, per os (PO); broken line 5 means that WX-325 was administrated at a dose of 150 mg/kg bis in die (BID) at an interval of 8 hours, per os (PO); broken line 6 means that tenofovir (TDF) of the positive compound was administrated at a dose of 15 mg/kg bis in die (BID) at an interval of 8 hours, per os (PO); LLOQ means lower limit of detection; Note: WX-325 in FIG. 7 means the compound represented by formula (I) of the present invention. […]
Experimental operation: The day of the first administration was designated as day 0, the day before administration was designated as day −1, the day after administration was designated as day 1, and so on. […] The content of HBV DNA, HBeAg and HBsAg were detected using the serum. […] Both drugs were administered for 28 days, and blood samples were taken on day 3, 7, 10 and 28 after administration, and the level of HBV DNA in plasma was detected by qPCR. […]

## Cc1cc2n(c1)S(=O)(=O)c1ccc(C(=O)NCC[C@H]3COCCO3)cc1NC2=O [compound represented by formula (I)]
CYP1A2
  pIC50: < 4.30
  inhibitory effect on CYP1A2 (conclusion in words): no evident inhibitory effect
Hepatitis B virus
  in vivo efficacy, HBV DNA in plasma and liver (conclusion in words): good in vivo efficacy and a dose-dependent effect
